Columns and labels:
Type in all cases: in vivo
[1] = tested on: Tobacco Budworm [Heliothis virescens (Fabricius)] eggs; experiment: Tobacco budworm eggs (TBW-E); settings: percent in solution; 2-day old eggs
Outline: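 Step 1: dip 2-day old egg patches in acetone test solutions (top concentration 0.1%). Step 2: hold in dishes with rearing medium at 78° F. Step 3: record mortality after control hatch and feeding.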

[2] = tested on: Housefly [Musca domestica]; experiment: Housefly contact mortality in dishes (HF), 48 hours; settings: μg of test compound per 25 female flies
Outline: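 Dry-film exposure of 25 female houseflies per cage, 48 h; LC50 as μg per 25 flies.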

[3] = tested on: Tobacco Budworm [Heliothis virescens (Fabricius)] larvae; experiment: Tobacco budworm larvae, contact (TBW-C), 5 days; settings: percent in solution, second-instar larvae
Outline: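 Cotton cotyledons dipped 2–3 s in compound in 50-50 acetone-water, dried, then infested with 5 second-instar larvae and held 5 days at high humidity. Mortality scored; LC50 from dosage-mortality curves, expressed as percent compound in solution, concentrations from 0.1% downward.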

[4] = tested on: Black Bean Aphid [Aphis fabae (Scop.)]; experiment: Black bean aphid spray test on nasturtium (BBA), 48 hours; settings: percent of test compound in sprayed solution
Outline: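 LC50, given as percent test compound in the sprayed liquid, was calculated from dosage-mortality curves using concentrations from 0.05% downward. Sprays in 50:50 acetone-water went to runoff on ~5 cm nasturtiums carrying 25-50 aphids of mixed ages, one day after infestation. Deaths were counted 48 h later under greenhouse conditions.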

[5] = tested on: Beet Armyworm (Spodoptera exigua); experiment: Beet armyworm leaf dip (BAW), 5 days; settings: percent in solution; second-instar larvae; five days
Experimental: The compounds in Tables 1 and 2 above were tested for insecticidal activity using the following testing procedures. LC50 values, based on the results of these tests and calculated according to dosage-mortality curves, are expressed in Table 3.
Beet Armyworm (Spodoptera exigua):
Test compounds were diluted in a 50-50 acetone-water solution. Young leaves of sugar beets (Beta vulgaris) were immersed in the test solutions for 2-3 seconds and placed on a wire screen to dry. The dried leaves were placed in petri dishes containing a moistened filter paper and infested with five second-instar beet armyworm larvae. The dishes were placed in a high humidity chamber. Mortality of the larvae was recorded five days later. Test concentrations ranged from 0.1% downward. The LC-50 values are expressed below in Table 3 under the heading "BAW" in terms of percent of the test compound in solution.

[6] = tested on: Cabbage Looper [Trichoplusia ni (Hubner)]; experiment: Cabbage looper leaf dip (CL), 3-5 days; settings: percent in solution, second-instar larvae
Outline: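 Squash cotyledons dipped in test solution (acetone-water 50-50, ≤0.1%), dried, offered to 5 second-instar larvae; mortality after 3-5 days gives LC50.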

[7] = tested on: Aster Leafhopper [Macrosteles fascifrens (Stal)]; experiment: Aster leafhopper on dipped oat seedlings (LH), 48 hours; settings: percent in solution, adults/nymphs
Outline: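 LC50 values, given as percent of test compound in the dip solution, were derived from dosage-mortality curves over concentrations from 0.05% downward. Mortality was counted 48 hours after ten leafhopper adults/nymphs were enclosed on treated seedlings. The seedlings were oats, about 10 cm tall, briefly dipped in 50-50 acetone-water.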

[8] = tested on: Maize weevil [Sitophilus zeamais (Motschulsky)]; experiment: Maize weevil on dipped corn seeds (MW), 48 hours; settings: percent in solution, adult weevils
Outline: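 LC50, given as percent of compound in dipping solution, comes from dosage-mortality curves over concentrations descending from 0.01%. Four corn seeds soaked 2-3 s in 50:50 acetone:water solution were dried and held with 10 adult weevils, about 25° C, mortality read after 48 h.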

Row | SMILES | LC50 TBW E (eggs) [1] [%] | LC50 HF [2] [µg] | LC50 TBW C (contact) [3] [%] | LC50 BBA [4] [%] | LC50 BAW [5] [%] | LC50 CL [6] [%] | LC50 LH [7] [%] | LC50 MW [8] [%]
1 | CC(C)C(=Nc1ccc(F)c(F)c1)OCc1cccc(Oc2ccccc2)c1 [Compound 54] | 0.017 | 3.5 | 0.001 | 0.001 | 0.004 | 0.0003 | 0.00015 | 
2 | CC(C)C(=Nc1ccc(Br)cc1)OCc1ccc(F)c(Oc2ccc(F)cc2)c1 [Compound 333] | 0.025 | 15 | 0.00075 | 0.001 | > 0.1 | 0.00024 |  | > 0.01
3 | CC(C)C(=Nc1ccc(C(C)C)cc1)OCc1cccc(Oc2ccccc2)c1 [Compound 144] | 0.05 | 100 | 0.006 | 0.003 | > 0.01 | 0.002 | 0.0006 | > 0.01
4 | Clc1cccc(N=C(OCc2cccc(Oc3ccccc3)c2)C(Cl)Cl)c1 [Compound 1] | 0.05 | 4.8 | 0.06 | 0.0003 | 0.009 | 0.005 | > 0.05 | > 0.01
5 | CC(C)C(=Nc1ccc(F)c(F)c1F)OCc1cccc(Oc2ccc(F)cc2)c1 [Compound 348] | > 0.1 | 8 | 0.00075 | 0.001 | > 0.1 | 0.0002 | 0.05 | > 0.01
6 | CC(C)C(=Nc1ccc(Cl)c(C(F)(F)F)c1)OCc1cccc(Oc2ccccc2)c1 [Compound 71] | 0.065 | 50 | 0.0008 | 0.001 | 0.0004 | 0.0006 | 0.002 | 
7 | CC(=Nc1ccccc1)OCc1cccc(Oc2ccccc2)c1 [Compound 42] | > 0.1 | 45 | > 0.1 | > 0.05 | > 0.1 | > 0.1 | > 0.05 | > 0.01
8 | CC(C)C(=Nc1cccc(F)c1)OCc1cccc(Oc2ccccc2)c1 [Compound 47] | 0.06 | 10 | 0.002 | 0.001 | 0.002 | 0.002 | 0.0003 | 
9 | Clc1ccc(N=C(OCc2cccc(Oc3ccccc3)c2)C(Cl)Cl)cc1 [Compound 29] | 0.01 | 5 | 0.001 | 0.001 | 0.003 | 0.002 | 0.003 | > 0.01
10 | CC(C)C(=Nc1ccc(OC(F)(F)F)cc1)OCc1ccc(F)c(Oc2ccc(F)c(F)c2)c1 [Compound 347] | > 0.1 | 30 | 0.0001 | 0.0002 | 0.00075 | 0.000075 | 0.0002 | > 0.01
11 | CC(C)C(=Nc1cccc(C(F)(F)F)c1)OCc1ccc(F)c(Oc2ccccc2)c1 [Compound 80] | 0.005 | 4.5 | 0.00075 | 0.00025 | 0.0018 | 0.0003 | 0.0001 | 
12 | CC(C)C(=Nc1cccc(I)c1)OCc1ccc(F)c(Oc2ccc(F)cc2)c1 [Compound 279] | 0.016 | 4 | 0.007 | 0.0005 | 0.0025 | 0.00008 | 0.0003 | > 0.01
13 | CC(C)C(=Nc1ccc(F)c(Cl)c1)OCc1cc(Oc2ccc(F)cc2)c(F)cc1F [Compound 343] | > 0.1 | 40 | 0.00025 | 0.002 | > 0.1 | 0.00027 |  | > 0.01
14 | CC(C)C(=Nc1ccc(I)cc1)OCc1ccc(F)c(Oc2ccc(F)cc2)c1 [Compound 335] | 0.05 | 34 | 0.00025 | 0.0008 | > 0.1 | 0.00027 |  | > 0.01
15 | ClCC(=Nc1ccc(Cl)cc1)OCc1cccc(Oc2ccccc2)c1 [Compound 31] | > 0.1 | > 100 | 0.01 | 0.05 | 0.08 | 0.05 | > 0.05 | > 0.01
16 | CC(C)C(=Nc1cccc(Cl)c1)OCc1cccc(Oc2ccc(Cl)cc2)c1 [Compound 270] | > 0.01 | 12 | > 0.0015 | > 0.05 | 0.005 | 0.00025 | 0.003 | > 0.01
17 | CC(C)C(=Nc1ccc2c(c1)OC(F)(F)O2)OCc1ccc(F)c(Oc2ccc(F)cc2)c1 [Compound 284] |  | 39 | 0.0002 | 0.0003 | 0.0025 | 0.00005 | 0.0003 | 0.0075
18 | CC(Cl)(Cl)C(=Nc1ccc(Cl)cc1)OCc1cccc(Oc2ccccc2)c1 [Compound 3] | > 0.1 | 50 | 0.009 | 0.003 | 0.015 | 0.012 | > 0.05 | > 0.01
19 | CC(C)C(=Nc1cccc(C(F)(F)F)c1)OCc1ccc(F)c(Oc2ccc(F)cc2)c1 [Compound 268] | 0.023 | 4 | 0.0005 | > 0.05 | 0.001 | 0.000025 | 0.0005 | > 0.01
20 | CC(C)C(=Nc1ccc(F)cc1F)OCc1cccc(Oc2ccccc2)c1 [Compound 52] | > 0.05 | 8 | 0.004 | 0.001 | 0.01 | 0.0025 | 0.001 | 
21 | FC(F)(F)Oc1ccc(N=C(OCc2cccc(Oc3ccccc3)c2)C(Cl)Cl)cc1 [Compound 64] | 0.03 | 11 | 0.1 | 0.0006 | 0.0025 | 0.0025 | > 0.05 | > 0.01
22 | CC(C)C(=Nc1ccc(Cl)cc1)OCc1cccc(Oc2ccccc2)c1 [Compound 2] | 0.04 | 4.5 | 0.0009 | 0.0003 | 0.01 | 0.006 | 0.0003 | 
23 | Clc1ccc(N=C(OCc2cccc(Oc3ccccc3)c2)C(Cl)Cl)c(Cl)c1 [Compound 4] | > 0.1 | 100 | 0.05 | > 0.05 | 0.04 | 0.007 | > 0.05 | 

Source: US5045566A, “Novel imidate insecticides” (ICI Americas Inc., priority 1989, dated 1991)
